The record followed here is patent publication US20110269811A1, “INHIBITORS OF SEMICARBAZIDE-SENSITIVE AMINE OXIDASE (SSAO) AND VAP-1 MEDIATED ADHESION USEFUL FOR TREATMENT AND PREVENTION OF DISEASES” (priority 2006, published 2011).

One assay addresses T1, A3 (h) (Homo sapiens, UniProt P0DMS8).
T1 construct: expressed in transfected cells; host or cells: HEK-293 cells
Description: Receptor binding screen, [^125I]AB-MECA. The settings on record: 10 uM Concentration of Compound I-1-Z; read-out: Mean Value, percent inhibition of control specific binding: A3 (h).

The subject of the next assay is α1 (non-selective). Description: Receptor binding screen, [^3H]prazosin. More on the design: species or system rat. The conditions noted are these: 10 uM Concentration of Compound I-1-Z. How it is done: (§1) For Table 4 below, the specific ligand binding to the receptors is defined as the difference between the total binding and the nonspecific binding determined in the presence of an excess of unlabelled ligand. The results are expressed as a percent inhibition of control specific binding obtained in the presence of Compound I-1-Z. The IC50 values (concentration causing a half-maximal inhibition of control specific binding) and Hill coefficients (nH) were determined by non-linear regression analysis of the competition curves using Hill equation curve fitting. The inhibition constants (Ki) were calculated from the Cheng Prusoff equation (Ki=IC50/(1+(L/KD)), where L=concentration of radioligand in the assay, and KD=affinity of the radioligand for the receptor). In each experiment, the respective reference compound was tested concurrently with Compound I-1-Z in order to assess the assay suitability.

The next assay concerns the target T2, β1 (h) (Homo sapiens, UniProt P08588).
T2 construct: expressed in transfected cells; host or cells: HEK-293 cells
Nature of the assay: Receptor binding screen, [^3H](−)CGP 12177. The conditions noted are these: 10 uM Concentration of Compound I-1-Z; read-out: Mean Value, percent inhibition of control specific binding: β1 (h).

Another assay has as its target T3, BZD (peripheral) (Rattus norvegicus, UniProt P16257).
T3 construct: rat heart; from tissue; host or cells: rat heart
Description: Receptor binding screen, [^3H]PK 11195. The conditions noted are these: 10 uM Concentration of Compound I-1-Z; read-out: Mean Value, percent inhibition of control specific binding: BZD (peripheral).

Another assay addresses T4, CGRP (h) (Homo sapiens, UniProt O60894+Q16602).
T4 construct: expressed in transfected cells; host or cells: CHO cells
Description: Receptor binding screen, [^125I]hCGRPα. The settings on record: 10 uM Concentration of Compound I-1-Z; read-out: Mean Value, percent inhibition of control specific binding: CGRP (h).

A further assay concerns the target T5, CCKA (h) (CCK1) (Homo sapiens, UniProt P32238).
T5 construct: expressed in transfected cells; host or cells: CHO cells
Description: Receptor binding screen, [^125I]CCK-8. The settings on record: 10 uM Concentration of Compound I-1-Z; read-out: Mean Value, percent inhibition of control specific binding: CCKA (h) (CCK1).

A further assay deals with T6, D4.4 (h) (Homo sapiens, UniProt P21917).
T6 construct: expressed in transfected cells; host or cells: CHO cells
Description: Receptor binding screen, [^3H]spiperone. The conditions noted are these: 10 uM Concentration of Compound I-1-Z; read-out: Mean Value, percent inhibition of control specific binding: D4.4 (h).

The target of another assay is T7, ETA (h) (Homo sapiens, UniProt P25101).
T7 construct: expressed in transfected cells; host or cells: CHO cells
Nature of the assay: Receptor binding screen, [^125I]endothelin-1. The conditions noted are these: 10 uM Concentration of Compound I-1-Z; read-out: Mean Value, percent inhibition of control specific binding: ETA (h).

For a further assay, the system named is GABA (non-selective). Nature of the assay: Receptor binding screen, [^3H]GABA. More on the design: species or system rat. The settings on record: 10 uM Concentration of Compound I-1-Z. How it is done:
as §1

Another assay relates to PDGF. Description: Receptor binding screen, [^125I]PDGF BB, Balb/c 3T3 cells. The settings on record: 10 uM Concentration of Compound I-1-Z.
The next assay has as its target T8, MT1 (h) (Homo sapiens, UniProt P48039).
T8 construct: expressed in transfected cells; host or cells: CHO cells
Description: Receptor binding screen, [^125I]iodomelatonin. The settings on record: 10 uM Concentration of Compound I-1-Z; read-out: Mean Value, percent inhibition of control specific binding: MT1 (h).

The next assay addresses T9, δ2 (h) (DOP) (Homo sapiens, UniProt P41143).
T9 construct: expressed in transfected cells; host or cells: CHO cells
Nature of the assay: Receptor binding screen, [^3H]DADLE. The conditions noted are these: 10 uM Concentration of Compound I-1-Z; read-out: Mean Value, percent inhibition of control specific binding: δ2 (h) (DOP). How it is done:
as §1

Another assay has as its system PCP. Nature of the assay: Receptor binding screen, [^3H]TCP. More on the design: species or system rat. The settings on record: 10 uM Concentration of Compound I-1-Z.
Another assay has as its target T10, 5-HT2A (h) (Homo sapiens, UniProt P28223).
T10 construct: expressed in transfected cells; host or cells: HEK-293 cells
Description: Receptor binding screen, [^3H]ketanserin. The settings on record: 10 uM Concentration of Compound I-1-Z; read-out: Mean Value, percent inhibition of control specific binding: 5-HT2A (h).

A further assay deals with T11, 5-HT2C (h) (Homo sapiens, UniProt P28335).
T11 construct: expressed in transfected cells; host or cells: CHO cells
Nature of the assay: Receptor binding screen, [^3H]mesulergine. The settings on record: 10 uM Concentration of Compound I-1-Z; read-out: Mean Value, percent inhibition of control specific binding: 5-HT2C (h).

The next assay deals with T12, 5-HT3 (h) (Homo sapiens, UniProt P46098).
T12 construct: expressed in transfected cells; host or cells: CHO cells
Nature of the assay: Receptor binding screen, [^3H]BRL 43694. The settings on record: 10 uM Concentration of Compound I-1-Z; read-out: Mean Value, percent inhibition of control specific binding: 5-HT3 (h).

The target of the next assay is T13, 5-HT5A (h) (Homo sapiens, UniProt P47898).
T13 construct: expressed in transfected cells; host or cells: CHO cells
Description: Receptor binding screen, [^3H]LSD. The settings on record: 10 uM Concentration of Compound I-1-Z; read-out: Mean Value, percent inhibition of control specific binding: 5-HT5A (h).

For assay [1], the system named is oxazolone-induced colitis. Nature of the assay: Oxazolone-induced colitis. In kind it is in vivo, SJL/J male mice. The conditions noted are these: 30 mg/kg intraperitoneally, day 0 until day 12; FIG. 2A, 2B. How it is done: Oxazolone-induced colitis is a TH2-mediated process that closely resembles ulcerative colitis and is responsive to anti-IL4 therapy ((Strober W. et al (2002) Annu. Rev. Immunol. 20: 495, Boirivant M. et al. (1998) J. Ex. Med. 188: 1929). Oxazolone colitis is induced as described (Fuss I. J. et al. (2002) J. Immunol. 168: 900). Briefly, mice are pre-sensitized by epicutaneous application of 1% oxazolone (4-ethoxymethylene-2-phenyl-2oxazolin-5-one, Sigma) in 100% EtOH (200 μL) on day 0, followed by intrarectal administration of 0.75% oxazolone in 50% EtOH (100 μL) to anesthetized SJL/J male mice on day 5 through a 3.5 F catheter inserted 4 cm proximal to the anal verge. Mice are divided in two treatment groups and injected i.p. twice a day with either PBS or a compound of the invention. Injections are initiated at day 0 and are continued through day 12. Disease progression is evaluated by monitoring body weight and survival.
A study was carried out using the protocol described above for oxazolone-induced colitis. […] Disease progression was evaluated until day 15 (10 days after intrarectal administration) by monitoring survival rates and body weight. When following the above-described protocol, disease severity as measured by body weight drop was maximal at day 11 (6 days after intrarectal challenge), although animals started dying on day 9.

T7 sequence (P25101 21-427): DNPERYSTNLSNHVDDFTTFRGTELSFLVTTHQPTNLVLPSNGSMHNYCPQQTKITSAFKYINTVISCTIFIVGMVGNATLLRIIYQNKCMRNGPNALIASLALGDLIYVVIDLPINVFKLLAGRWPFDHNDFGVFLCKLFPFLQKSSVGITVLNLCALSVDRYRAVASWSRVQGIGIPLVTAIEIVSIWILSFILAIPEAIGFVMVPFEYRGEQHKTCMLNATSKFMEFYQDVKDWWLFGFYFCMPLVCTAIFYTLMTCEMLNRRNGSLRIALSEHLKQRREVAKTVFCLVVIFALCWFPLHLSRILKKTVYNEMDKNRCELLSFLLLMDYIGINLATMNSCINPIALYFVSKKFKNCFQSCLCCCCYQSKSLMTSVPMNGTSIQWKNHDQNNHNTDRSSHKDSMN
T5 sequence (P32238 whole entry): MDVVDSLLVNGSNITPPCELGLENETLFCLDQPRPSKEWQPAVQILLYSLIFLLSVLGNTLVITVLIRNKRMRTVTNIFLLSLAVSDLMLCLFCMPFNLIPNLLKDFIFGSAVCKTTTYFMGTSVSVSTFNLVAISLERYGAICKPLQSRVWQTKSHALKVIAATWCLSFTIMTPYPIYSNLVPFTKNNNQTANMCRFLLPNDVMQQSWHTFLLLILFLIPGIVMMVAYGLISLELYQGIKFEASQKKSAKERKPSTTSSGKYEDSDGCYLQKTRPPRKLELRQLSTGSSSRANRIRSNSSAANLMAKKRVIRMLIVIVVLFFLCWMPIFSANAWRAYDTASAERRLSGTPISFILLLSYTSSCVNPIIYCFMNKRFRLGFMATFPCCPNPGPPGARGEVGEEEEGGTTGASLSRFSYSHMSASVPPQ
T4 sequence (Q16602 23-461): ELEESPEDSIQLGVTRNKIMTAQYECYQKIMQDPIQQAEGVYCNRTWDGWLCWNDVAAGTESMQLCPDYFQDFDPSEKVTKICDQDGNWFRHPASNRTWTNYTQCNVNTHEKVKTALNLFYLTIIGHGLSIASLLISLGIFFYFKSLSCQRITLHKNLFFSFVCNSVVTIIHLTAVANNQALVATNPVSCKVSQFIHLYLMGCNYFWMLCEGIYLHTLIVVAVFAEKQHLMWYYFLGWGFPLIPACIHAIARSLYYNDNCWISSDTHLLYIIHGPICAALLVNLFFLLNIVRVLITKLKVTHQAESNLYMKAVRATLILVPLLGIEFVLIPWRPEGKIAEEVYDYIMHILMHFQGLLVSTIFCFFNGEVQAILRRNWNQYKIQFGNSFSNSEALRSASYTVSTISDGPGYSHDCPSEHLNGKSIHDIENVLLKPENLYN
T4 sequence (O60894 27-148): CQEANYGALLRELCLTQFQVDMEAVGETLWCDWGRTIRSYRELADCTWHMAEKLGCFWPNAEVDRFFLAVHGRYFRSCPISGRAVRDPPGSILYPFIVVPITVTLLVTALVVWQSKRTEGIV
T1 sequence (P0DMS8 whole entry): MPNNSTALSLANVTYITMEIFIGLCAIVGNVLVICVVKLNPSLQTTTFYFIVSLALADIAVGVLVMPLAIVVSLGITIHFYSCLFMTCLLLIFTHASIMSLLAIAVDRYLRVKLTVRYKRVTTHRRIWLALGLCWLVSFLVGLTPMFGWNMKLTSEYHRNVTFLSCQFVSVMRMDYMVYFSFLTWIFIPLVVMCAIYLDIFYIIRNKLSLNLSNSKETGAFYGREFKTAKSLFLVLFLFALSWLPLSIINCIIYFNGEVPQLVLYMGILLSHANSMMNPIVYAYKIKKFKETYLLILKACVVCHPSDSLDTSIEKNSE
T8 sequence (P48039 whole entry): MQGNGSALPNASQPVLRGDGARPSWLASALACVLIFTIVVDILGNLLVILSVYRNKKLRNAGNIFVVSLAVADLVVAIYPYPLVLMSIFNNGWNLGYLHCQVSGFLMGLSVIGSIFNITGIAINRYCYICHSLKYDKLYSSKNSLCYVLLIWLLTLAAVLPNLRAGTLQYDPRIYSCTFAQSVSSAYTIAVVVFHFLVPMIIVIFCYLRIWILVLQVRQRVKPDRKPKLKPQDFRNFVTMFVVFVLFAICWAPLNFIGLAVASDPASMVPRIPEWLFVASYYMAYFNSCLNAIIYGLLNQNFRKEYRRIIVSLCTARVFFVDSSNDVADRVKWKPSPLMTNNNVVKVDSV
T12 sequence (P46098 24-478): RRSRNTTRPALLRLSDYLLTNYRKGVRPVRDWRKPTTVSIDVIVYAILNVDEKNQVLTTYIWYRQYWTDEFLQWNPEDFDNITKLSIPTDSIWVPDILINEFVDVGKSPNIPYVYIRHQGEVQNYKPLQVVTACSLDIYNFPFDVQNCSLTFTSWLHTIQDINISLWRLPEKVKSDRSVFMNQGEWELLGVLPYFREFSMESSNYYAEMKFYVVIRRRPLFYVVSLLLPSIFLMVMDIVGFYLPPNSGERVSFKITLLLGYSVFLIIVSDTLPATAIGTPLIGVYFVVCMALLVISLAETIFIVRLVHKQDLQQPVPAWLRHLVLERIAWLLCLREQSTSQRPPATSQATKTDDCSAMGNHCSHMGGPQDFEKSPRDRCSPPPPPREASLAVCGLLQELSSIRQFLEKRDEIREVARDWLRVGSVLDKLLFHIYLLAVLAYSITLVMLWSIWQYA
T6 sequence (P21917 whole entry): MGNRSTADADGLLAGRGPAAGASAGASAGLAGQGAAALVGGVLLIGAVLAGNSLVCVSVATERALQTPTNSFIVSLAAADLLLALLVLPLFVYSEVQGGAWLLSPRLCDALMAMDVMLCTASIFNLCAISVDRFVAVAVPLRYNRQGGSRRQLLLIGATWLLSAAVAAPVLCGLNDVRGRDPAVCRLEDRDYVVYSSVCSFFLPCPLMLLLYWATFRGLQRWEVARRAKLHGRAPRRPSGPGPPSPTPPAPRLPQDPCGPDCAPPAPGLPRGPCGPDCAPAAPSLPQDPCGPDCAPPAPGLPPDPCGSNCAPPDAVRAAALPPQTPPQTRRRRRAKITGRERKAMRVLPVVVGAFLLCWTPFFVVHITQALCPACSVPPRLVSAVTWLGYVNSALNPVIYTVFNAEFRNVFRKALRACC
T13 sequence (P47898 whole entry): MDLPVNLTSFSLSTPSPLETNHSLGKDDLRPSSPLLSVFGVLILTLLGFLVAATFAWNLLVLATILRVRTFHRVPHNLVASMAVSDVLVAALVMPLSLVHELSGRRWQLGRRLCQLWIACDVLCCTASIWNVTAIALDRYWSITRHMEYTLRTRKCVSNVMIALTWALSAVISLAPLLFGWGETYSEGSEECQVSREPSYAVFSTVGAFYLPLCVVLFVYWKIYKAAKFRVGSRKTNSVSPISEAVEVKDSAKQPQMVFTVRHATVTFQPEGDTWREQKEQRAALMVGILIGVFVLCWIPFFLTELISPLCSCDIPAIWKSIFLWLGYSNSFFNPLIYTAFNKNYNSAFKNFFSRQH
T10 sequence (P28223 whole entry): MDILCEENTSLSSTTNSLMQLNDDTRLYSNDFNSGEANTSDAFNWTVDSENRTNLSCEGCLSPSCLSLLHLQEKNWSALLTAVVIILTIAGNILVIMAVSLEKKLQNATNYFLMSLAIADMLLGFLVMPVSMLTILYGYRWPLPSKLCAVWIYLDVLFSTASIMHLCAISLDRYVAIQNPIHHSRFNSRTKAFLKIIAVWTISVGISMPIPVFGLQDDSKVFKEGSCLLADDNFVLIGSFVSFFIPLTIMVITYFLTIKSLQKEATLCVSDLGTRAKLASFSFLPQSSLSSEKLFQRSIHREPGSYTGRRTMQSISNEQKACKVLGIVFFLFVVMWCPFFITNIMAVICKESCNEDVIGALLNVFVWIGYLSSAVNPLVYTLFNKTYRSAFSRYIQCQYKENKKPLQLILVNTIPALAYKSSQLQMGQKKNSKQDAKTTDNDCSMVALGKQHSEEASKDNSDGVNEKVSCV
T11 sequence (P28335 33-458): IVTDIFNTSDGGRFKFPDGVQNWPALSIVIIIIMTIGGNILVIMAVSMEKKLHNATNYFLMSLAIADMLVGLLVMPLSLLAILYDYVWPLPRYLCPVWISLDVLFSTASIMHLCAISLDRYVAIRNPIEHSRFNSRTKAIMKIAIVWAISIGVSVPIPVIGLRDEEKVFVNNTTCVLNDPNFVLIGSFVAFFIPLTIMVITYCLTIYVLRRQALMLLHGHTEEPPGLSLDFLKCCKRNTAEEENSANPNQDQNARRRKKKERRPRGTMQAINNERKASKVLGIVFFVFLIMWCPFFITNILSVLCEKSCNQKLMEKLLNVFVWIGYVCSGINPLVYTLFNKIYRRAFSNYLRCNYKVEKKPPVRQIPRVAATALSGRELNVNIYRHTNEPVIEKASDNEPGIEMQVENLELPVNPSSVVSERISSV
T9 sequence (P41143 whole entry): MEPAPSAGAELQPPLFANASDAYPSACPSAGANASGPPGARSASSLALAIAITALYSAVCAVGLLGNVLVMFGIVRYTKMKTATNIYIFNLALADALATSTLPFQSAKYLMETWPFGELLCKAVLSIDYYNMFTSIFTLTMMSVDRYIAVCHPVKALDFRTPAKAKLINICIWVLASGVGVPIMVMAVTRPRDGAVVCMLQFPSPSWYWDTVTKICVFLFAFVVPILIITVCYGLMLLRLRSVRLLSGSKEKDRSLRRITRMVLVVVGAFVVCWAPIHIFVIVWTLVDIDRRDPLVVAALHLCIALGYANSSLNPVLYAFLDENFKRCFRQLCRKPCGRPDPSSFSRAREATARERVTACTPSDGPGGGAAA

For the compound `COc1ccc(C/C(=C/F)CN)cc1.Cl` [Compound I-1-Z, (Z)-3-Fluoro-2-(4-methoxybenzyl)-allylamine hydrochloride], the inhibition (commonly the drop in the measured response relative to a control, in per cent) at 10 µM is 1% at A3 (h); 5% at β1 (h); -6% on BZD (peripheral); -7% on CGRP (h); -13% at CCKA (h) (CCK1); 2% at D4.4 (h). Moreover, the inhibition at 10 µM on ETA (h) was 8%; on MT1 (h), 0%; at δ2 (h) (DOP), 0%; on 5-HT2A (h), -4%; at 5-HT2C (h) it was 21%; on 5-HT3 (h), 4%. On 5-HT5A (h), the inhibition at 10 µM was -3%. For the same compound, the “Mean Value, percent inhibition of control specific binding: α1 (non-selective)” value in the assay with α1 (non-selective) is reported as 8%. Besides, the “Mean Value, percent inhibition of control specific binding: GABA (non-selective)” value in the assay on GABA (non-selective) is recorded as −19%. Further, the “Mean Value, percent inhibition of control specific binding: PDGF” value in the assay on PDGF is recorded as −14%. For the same compound, in the assay on PCP, the “Mean Value, percent inhibition of control specific binding: PCP” value was −12%.

For `NC/C(F)=C\Cc1cc(F)cc(C(F)(F)F)c1` [II-1-E, (E)-2-Fluoro-4-(3-fluoro-5-trifluoromethylphenyl)-but-2-enylamine], the “survival rates and body weight loss compared with the vehicle group” value in assay [1] is “improved survival rates and body weight loss”.
